From ChEMBL document CHEMBL1134098, “Bioisosteric determinants for subtype selectivity of ligands for heteromeric GABA(A) receptors” (Bioorg Med Chem Lett, 2001)

Experiments:
[1] = target: T1, GABA-A receptor; alpha-1/beta-3/gamma-2 (Homo sapiens, UniProt P14867+P18507+P28472); test: Effective agonist dose for human Gamma-aminobutyric acid A receptor alpha-1-beta-3-gamma-2 expressed in Xenopus oocytes; format: functional, cell-based, Oocyte
T1 sequence (P14867 whole entry): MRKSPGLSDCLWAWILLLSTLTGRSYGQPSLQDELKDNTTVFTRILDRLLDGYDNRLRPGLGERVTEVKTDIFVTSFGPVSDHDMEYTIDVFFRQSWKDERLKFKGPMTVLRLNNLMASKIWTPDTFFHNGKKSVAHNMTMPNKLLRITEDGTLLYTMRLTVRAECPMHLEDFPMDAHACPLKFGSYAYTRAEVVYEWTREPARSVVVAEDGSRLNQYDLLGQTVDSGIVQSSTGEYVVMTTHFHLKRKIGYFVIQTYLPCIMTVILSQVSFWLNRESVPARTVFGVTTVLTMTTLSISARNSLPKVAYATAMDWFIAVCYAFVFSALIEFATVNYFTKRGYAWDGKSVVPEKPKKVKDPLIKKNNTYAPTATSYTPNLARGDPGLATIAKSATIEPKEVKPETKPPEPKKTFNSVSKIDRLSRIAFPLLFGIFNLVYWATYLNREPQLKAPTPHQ
T1 sequence (P18507 whole entry): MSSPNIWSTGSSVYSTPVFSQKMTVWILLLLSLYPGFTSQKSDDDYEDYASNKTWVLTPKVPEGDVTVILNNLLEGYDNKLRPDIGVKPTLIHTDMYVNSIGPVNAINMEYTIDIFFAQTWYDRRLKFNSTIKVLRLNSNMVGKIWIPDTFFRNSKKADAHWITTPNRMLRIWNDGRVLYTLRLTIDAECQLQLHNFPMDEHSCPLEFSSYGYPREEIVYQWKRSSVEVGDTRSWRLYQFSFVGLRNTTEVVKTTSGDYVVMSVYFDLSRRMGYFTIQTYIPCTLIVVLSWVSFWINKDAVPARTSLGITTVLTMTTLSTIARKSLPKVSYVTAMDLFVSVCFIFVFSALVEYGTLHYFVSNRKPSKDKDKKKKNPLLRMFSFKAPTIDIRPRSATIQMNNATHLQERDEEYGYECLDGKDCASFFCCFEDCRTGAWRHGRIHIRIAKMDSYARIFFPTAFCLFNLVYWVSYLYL
T1 sequence (P28472 whole entry): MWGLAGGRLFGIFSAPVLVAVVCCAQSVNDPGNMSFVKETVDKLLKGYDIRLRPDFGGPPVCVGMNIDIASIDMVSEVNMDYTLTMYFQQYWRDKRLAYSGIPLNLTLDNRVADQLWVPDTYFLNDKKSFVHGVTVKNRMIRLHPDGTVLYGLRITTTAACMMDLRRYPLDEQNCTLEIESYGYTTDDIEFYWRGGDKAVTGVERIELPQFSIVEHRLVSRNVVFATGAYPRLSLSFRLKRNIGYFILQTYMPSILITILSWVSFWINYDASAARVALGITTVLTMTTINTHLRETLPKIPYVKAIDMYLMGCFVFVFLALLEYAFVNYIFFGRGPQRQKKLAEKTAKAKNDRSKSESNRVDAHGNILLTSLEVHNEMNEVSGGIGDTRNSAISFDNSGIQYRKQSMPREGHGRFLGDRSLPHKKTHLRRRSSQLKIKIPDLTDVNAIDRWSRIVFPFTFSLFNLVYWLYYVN

[2] = target: T2, GABA-A receptor; alpha-5/beta-3/gamma-2 (Homo sapiens, UniProt P18507+P28472+P31644); test: Effective agonist dose for human Gamma-aminobutyric acid A receptor alpha-5-beta-3-gamma-2 expressed in Xenopus oocytes; format: functional, cell-based, Oocyte
T2 sequence (P18507 whole entry): T1 sequence (P18507 whole entry)
T2 sequence (P28472 whole entry): T1 sequence (P28472 whole entry)
T2 sequence (P31644 whole entry): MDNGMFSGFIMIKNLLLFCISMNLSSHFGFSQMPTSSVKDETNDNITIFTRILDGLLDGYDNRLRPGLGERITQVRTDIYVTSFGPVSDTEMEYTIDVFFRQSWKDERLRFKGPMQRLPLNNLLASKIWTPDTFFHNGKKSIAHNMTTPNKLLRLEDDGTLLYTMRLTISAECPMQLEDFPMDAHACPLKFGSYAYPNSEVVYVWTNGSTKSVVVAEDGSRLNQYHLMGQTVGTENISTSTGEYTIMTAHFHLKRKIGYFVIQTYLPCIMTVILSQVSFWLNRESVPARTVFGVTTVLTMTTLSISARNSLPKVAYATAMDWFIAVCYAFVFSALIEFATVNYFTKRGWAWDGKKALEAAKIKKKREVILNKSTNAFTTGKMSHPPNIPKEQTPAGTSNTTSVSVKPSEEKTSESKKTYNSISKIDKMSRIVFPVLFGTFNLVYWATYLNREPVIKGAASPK

[3] = target: GABA-A receptor; alpha-1/beta-3/gamma-2 (Homo sapiens) (UniProt P14867+P18507+P28472); test: Maximal response relative to Gamma-aminobutyric acid A against human Gamma-aminobutyric-acid A receptor alpha-1-beta-3-gamma-2 expressed in Xenopus oocytes; format: functional, cell-based; conditions: Oocyte
[4] = target: GABA-A receptor; alpha-3/beta-3/gamma-2 (Homo sapiens) (UniProt P18507+P28472+P34903); test: Maximal response relative to Gamma-aminobutyric acid A against human Gamma-aminobutyric-acid A receptor alpha-3-beta-3-gamma-2 expressed in Xenopus oocytes; format: functional, cell-based; conditions: Oocyte
[5] = target: T3, GABA A receptor alpha-4/beta-3/gamma-2 (Homo sapiens, UniProt P18507+P28472+P48169); test: Effective agonist dose for human Gamma-aminobutyric acid A receptor alpha-4-beta-3-gamma-2; format: functional
T3 sequence (P48169 whole entry, one chain of several): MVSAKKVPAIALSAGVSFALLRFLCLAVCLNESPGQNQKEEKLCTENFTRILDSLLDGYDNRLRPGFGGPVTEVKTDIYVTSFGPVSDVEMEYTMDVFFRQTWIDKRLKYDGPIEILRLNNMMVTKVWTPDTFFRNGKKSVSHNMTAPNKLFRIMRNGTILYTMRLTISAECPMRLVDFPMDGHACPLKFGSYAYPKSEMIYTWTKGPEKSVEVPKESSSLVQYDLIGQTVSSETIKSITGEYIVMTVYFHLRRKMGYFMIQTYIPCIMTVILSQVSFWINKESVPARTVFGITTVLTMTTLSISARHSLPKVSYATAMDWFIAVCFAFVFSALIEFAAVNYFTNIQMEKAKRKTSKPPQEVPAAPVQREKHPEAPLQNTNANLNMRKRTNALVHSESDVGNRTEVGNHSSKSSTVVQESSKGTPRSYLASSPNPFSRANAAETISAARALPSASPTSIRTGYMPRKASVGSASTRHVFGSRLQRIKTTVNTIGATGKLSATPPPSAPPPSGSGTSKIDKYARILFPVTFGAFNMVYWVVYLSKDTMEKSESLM

[6] = target: T4, GABA-A receptor; alpha-6/beta-3/gamma-2 (Homo sapiens, UniProt P18507+P28472+Q16445); test: Effective agonist dose for human Gamma-aminobutyric acid A receptor alpha-6-beta-3-gamma-2; format: functional
T4 sequence (Q16445 whole entry, one chain of several): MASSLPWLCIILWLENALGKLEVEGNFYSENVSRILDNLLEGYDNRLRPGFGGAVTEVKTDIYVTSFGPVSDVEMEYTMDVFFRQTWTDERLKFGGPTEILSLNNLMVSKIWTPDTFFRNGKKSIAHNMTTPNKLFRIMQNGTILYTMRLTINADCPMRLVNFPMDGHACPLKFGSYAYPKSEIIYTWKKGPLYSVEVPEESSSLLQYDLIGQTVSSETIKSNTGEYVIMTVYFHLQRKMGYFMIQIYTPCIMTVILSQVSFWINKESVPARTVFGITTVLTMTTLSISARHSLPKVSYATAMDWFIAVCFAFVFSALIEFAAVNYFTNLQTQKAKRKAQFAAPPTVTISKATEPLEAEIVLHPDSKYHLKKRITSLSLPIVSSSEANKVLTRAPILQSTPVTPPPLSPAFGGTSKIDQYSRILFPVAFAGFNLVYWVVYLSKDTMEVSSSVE

[7] = target: T5, GABA-A receptor; alpha-2/beta-3/gamma-2 (Homo sapiens, UniProt P18507+P28472+P47869); test: Agonist activity on human Gamma-aminobutyric acid A receptor alpha-2-beta-3-gamma-2 expressed in Xenopus oocytes; format: functional, cell-based, Oocyte
T5 sequence (P18507 whole entry): T1 sequence (P18507 whole entry)
T5 sequence (P28472 whole entry): T1 sequence (P28472 whole entry)
T5 sequence (P47869 whole entry): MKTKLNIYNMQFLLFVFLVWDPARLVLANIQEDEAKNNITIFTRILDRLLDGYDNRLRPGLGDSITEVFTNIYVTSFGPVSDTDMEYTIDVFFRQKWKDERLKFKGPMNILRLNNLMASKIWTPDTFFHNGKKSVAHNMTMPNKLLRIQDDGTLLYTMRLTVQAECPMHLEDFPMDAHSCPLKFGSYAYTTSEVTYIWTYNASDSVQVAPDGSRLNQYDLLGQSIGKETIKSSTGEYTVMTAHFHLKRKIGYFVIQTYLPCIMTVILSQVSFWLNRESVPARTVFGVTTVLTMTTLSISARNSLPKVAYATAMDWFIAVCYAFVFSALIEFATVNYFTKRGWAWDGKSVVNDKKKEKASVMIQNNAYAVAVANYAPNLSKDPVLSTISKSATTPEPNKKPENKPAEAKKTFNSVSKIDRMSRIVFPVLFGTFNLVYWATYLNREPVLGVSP

[8] = target: T6, GABA-A receptor; alpha-3/beta-3/gamma-2 (Homo sapiens, UniProt P18507+P28472+P34903); test: Agonist activity on human Gamma-aminobutyric acid A receptor alpha-3-beta-3-gamma-2 expressed in Xenopus oocytes; format: functional, cell-based, Oocyte
T6 sequence (P18507 whole entry): T1 sequence (P18507 whole entry)
T6 sequence (P28472 whole entry): T1 sequence (P28472 whole entry)
T6 sequence (P34903 whole entry): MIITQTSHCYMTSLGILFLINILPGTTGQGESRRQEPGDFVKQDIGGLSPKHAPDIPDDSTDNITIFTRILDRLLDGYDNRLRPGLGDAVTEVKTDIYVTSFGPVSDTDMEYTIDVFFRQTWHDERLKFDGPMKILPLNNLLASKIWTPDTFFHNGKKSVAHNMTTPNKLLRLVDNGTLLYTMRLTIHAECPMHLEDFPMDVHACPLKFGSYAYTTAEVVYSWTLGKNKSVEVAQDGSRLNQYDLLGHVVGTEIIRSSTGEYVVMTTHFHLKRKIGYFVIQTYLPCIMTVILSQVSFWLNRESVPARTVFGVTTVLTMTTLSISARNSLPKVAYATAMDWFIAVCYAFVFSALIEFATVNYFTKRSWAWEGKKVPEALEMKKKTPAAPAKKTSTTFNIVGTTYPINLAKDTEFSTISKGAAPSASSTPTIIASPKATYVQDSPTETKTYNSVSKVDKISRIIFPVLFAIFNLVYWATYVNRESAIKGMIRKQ

[9] = target: T3, GABA A receptor alpha-4/beta-3/gamma-2; test: Maximal response relative to Gamma-aminobutyric acid A against human Gamma-aminobutyric-acid A receptor alpha-4-beta-3-gamma-2 expressed in Xenopus oocytes; format: functional, cell-based; conditions: Oocyte
[10] = target: GABA-A receptor; alpha-2/beta-3/gamma-2 (Homo sapiens) (UniProt P18507+P28472+P47869); test: Maximal response relative to Gamma-aminobutyric acid A against human Gamma-aminobutyric-acid A receptor alpha-2-beta-3-gamma-2 expressed in Xenopus oocytes; format: functional, cell-based; conditions: Oocyte
[11] = target: T4, GABA-A receptor; alpha-6/beta-3/gamma-2; test: Maximal response relative to Gamma-aminobutyric acid A against human Gamma-aminobutyric-acid A receptor alpha-6-beta-3-gamma-2 expressed in Xenopus oocytes; format: functional, cell-based; conditions: Oocyte
[12] = target: GABA-A receptor; alpha-5/beta-3/gamma-2 (Homo sapiens) (UniProt P18507+P28472+P31644); test: Maximal response relative to Gamma-aminobutyric acid A against human Gamma-aminobutyric-acid A receptor alpha-5-beta-3-gamma-2 expressed in Xenopus oocytes; format: functional, cell-based; conditions: Oocyte
[13] = target: T1, GABA-A receptor; alpha-1/beta-3/gamma-2; test: Antagonistic potency against human Gamma-aminobutyric acid A receptor alpha-1-beta-3-gamma-2 expressed in Xenopus oocytes at 1 mM; format: functional, cell-based, Oocyte
[14] = target: T2, GABA-A receptor; alpha-5/beta-3/gamma-2; test: Antagonistic potency against human Gamma-aminobutyric acid A receptor alpha-5-beta-3-gamma-2 expressed in Xenopus oocytes at 1 mM; format: functional, cell-based, Oocyte
[15] = target: T5, GABA-A receptor; alpha-2/beta-3/gamma-2; test: Antagonistic potency against human Gamma-aminobutyric acid A receptor alpha-2-beta-3-gamma-2 expressed in Xenopus oocytes at 1 mM; format: functional, cell-based, Oocyte
[16] = target: T6, GABA-A receptor; alpha-3/beta-3/gamma-2; test: Antagonistic potency against human Gamma-aminobutyric acid A receptor alpha-3-beta-3-gamma-2 expressed in Xenopus oocytes at 1 mM; format: functional, cell-based, Oocyte
[17] = target: T3, GABA A receptor alpha-4/beta-3/gamma-2; test: Antagonistic potency against human […] Gamma-aminobutyric acid A receptor alpha-4-beta-3-gamma-2; format: functional
[18] = target: T4, GABA-A receptor; alpha-6/beta-3/gamma-2; test: Antagonistic potency against human Gamma-aminobutyric acid A receptor alpha-6-beta-3-gamma-2 expressed in Xenopus oocytes at 1 mM; format: functional, cell-based, Oocyte

Row | SMILES | EC50 [1] [µM] | EC50 [2] [µM] | Max [3] | Max [4] | EC50 [5] [µM] | EC50 [6] [µM] | EC50 [7] [µM] | EC50 [8] [µM] | Max [9] | Max [10] | Max [11] | Max [12] | Ki [13] [µM] | Ki [14] [µM] | Ki [15] [µM] | Ki [16] [µM] | Ki [17] [µM] | Ki [18] [µM]
1 | NCCC[Se](=O)O | 1400 | 1900 | 30 | 33 | 2100 | 3000 | 1500 | 4900 | 16 | 47 | 51 | 58 |  |  |  |  |  | 
2 | CP(=O)(O)C1CCNCC1 |  |  |  |  |  |  |  |  |  |  |  |  | 310 | 420 | 600 | 300 | 340 | 460
3 | O=C(O)Cc1c[nH]cn1 [IMIDAZOLE ACETIC ACID] | 310 | 420 | 24 | 54 | 340 | 460 | 600 | 300 | 27 | 72 | 25 | 56 |  |  |  |  |  | 
4 | O=[PH](O)C1CCNCC1 | 270 | 260 | 5 | 29 | 140 | 140 | 280 | 160 | 0 | 17 | 35 | 17 |  |  |  |  |  | 
5 | O=P(O)(O)C1CCNCC1 |  |  |  |  |  |  |  |  |  |  |  |  | 3300 | 2800 | 2100 | 3800 | 3100 | 4800
6 | O=S(=O)(O)C1CCNCC1 | 40 | 20 | 21 | 75 | 200 | 20 | 26 | 65 | 7.2 | 96 | 15 | 92 |  |  |  |  |  | 
